The source of these data is patent US6011037A, “Thiazole derivatives with phosphodiesterase-inhibiting action” (Byk Gulden Lomberg Chemische Fabrik GmbH, priority 1996, dated 2000).

In this assay the test system is PDE IV. In words: Inhibition of the PDE IV activity (method of Bauer and Schwabe, adapted to microtiter plates). The assay is classed as biochemical.

Structures can show the parent of a compound that is named as a salt.

Regarding `COc1ccc(-c2nc(-c3ccncc3)cs2)c2c1OC1(CCCC1)C2` [Compound 2, 4-[2-(2,3-Dihydro-7-methoxybenzofuran-2-spiro-1'-cyclopentan-4-yl)thiazol-4-yl]pyridinehydrobromide], the “-log IC50” value was found to be 7.09. As to `COc1ccc(-c2nc(-c3cccnc3)cs2)c2c1OC1(CCCC1)C2` [Compound 1, 3-[2-(2,3-Dihydro-7-methoxybenzofuran-2-spiro-1'-cyclopentan-4-yl)thiazol-4-yl]pyridine], the “-log IC50” value stood at 7.75.
